The results in this text go back to patent publication US20140128409A1, “MEDICAMENTS FOR THE TREATMENT OR PREVENTION OF FIBROTIC DISEASES” (BOEHRINGER INGELHEIM INTERNATIONAL GMBH, priority 2004, published 2014).

Common to all, as to format: in vivo, rat
The test system of experiment [1] is bleomycin-induced pulmonary fibrosis. In words: Lung morphology following bleomycin-induced pulmonary fibrosis (histology, Masson's Trichrome collagen staining). The note with it: male Wistar rats, bleomycin 10 U/kg intratracheally; 50 mg/kg daily orally, days 1-21; histology 21 days after instillation; FIG. 1C. On the procedure: (A) Effect of a representative compound on lung morphology following bleomycin-induced pulmonary fibrosis. All experiments were performed in accordance with German guidelines for animal welfare, performed by persons certified to work with animals and approved by the responsible authorities. Male Wistar rats were intratracheally injected with Bleomycin sulfate (10 U/kg body weight in 300 μl saline) or saline alone (saline control) using a catheter (0.5 mm internal diameter, 1.0 mm external diameter) through the nasal passage, following exposure to the anaesthetic Isofluorane for 5 minutes. The following day, the rats were orally treated with Example A (compound (134)) or saline suspended in 1 ml 0.1% Natrosol. Control rats were administered 1 ml 0.1% Natrosol (vehicle control). [table] 21 days following bleomycin instillation, the rats were killed with a lethal intraperitoneal injection of Narcoren™ (Pentobarbital Sodium, Rhone Merieux). The lungs were then removed, blotted dry and half was snap frozen in liquid nitrogen and stored at −80° C. The other half was fixed in 4% formalin for subsequent paraffin embedding and histology. The lung tissues fixed in 4% formalin were embedded into paraffin and 5 μm sections were cut using a microtome (Leica SM200R) and placed on poly-L-lysine coated slides. […] Collagen deposition was assessed using Masson's Trichrome staining.

Experiment [2] concerns procollagen I gene expression. Put plainly: Expression of fibrotic marker gene procollagen I in lung following bleomycin-induced pulmonary fibrosis (real time PCR). The note with it: bleomycin-treated rats, 50 mg/kg daily, day 21, versus bleomycin + vehicle; FIG. 2. On the procedure:
(§1) All experiments were performed in accordance with German guidelines for animal welfare, performed by persons certified to work with animals and approved by the responsible authorities. Male Wistar rats were intratracheally injected with Bleomycin sulfate (10 U/kg body weight in 300 μl saline) or saline alone (saline control) using a catheter (0.5 mm internal diameter, 1.0 mm external diameter) through the nasal passage, following exposure to the anaesthetic Isofluorane for 5 minutes. The following day, the rats were orally treated with Example A (compound (134)) or saline suspended in 1 ml 0.1% Natrosol. Control rats were administered 1 ml 0.1% Natrosol (vehicle control).
(§2) 21 days following bleomycin instillation, the rats were killed with a lethal intraperitoneal injection of Narcoren™ (Pentobarbital Sodium, Rhone Merieux). The lungs were then removed, blotted dry and half was snap frozen in liquid nitrogen and stored at −80° C. The other half was fixed in 4% formalin for subsequent paraffin embedding and histology.
(§3) (B) Effect of a representative compound on expression of fibrotic marker genes following bleomycin-induced pulmonary fibrosis.
(§4) One part of the frozen lung tissue dedicated to investigation of gene expression was cut into small pieces using a sterile scalpel blade. […] The concentration of each sample was then measured using a spectrophotometer. […]
For orientation: Real-time PCR tracks product formation cycle by cycle.

Experiment [3] concerns fibronectin gene expression. Put plainly: Expression of fibrotic marker gene fibronectin in lung following bleomycin-induced pulmonary fibrosis (real time PCR). Conditions: bleomycin-treated rats, 50 mg/kg daily, day 21, versus bleomycin + vehicle; FIG. 3. The procedure: as §1, §2, §3, §4

SMILES strings stand for the structures.

With `CN(C)Cc1ccc(N/C(=C2\C(=O)Nc3cc(F)ccc32)c2ccc(CCC(=O)O)cc2)cc1` [Example A, 3-Z-[1-(4-dimethylaminomethylanilino)-1-(4-(2-carboxyethyl)phenyl)methylene]-6-fluoro-2-indolinone], in experiment [1], the “fibroblast infiltration or extracellular matrix deposition in lung” value is “little or no fibroblast infiltration or extracellular matrix deposition has occurred” and the “lung fibrosis (lung morphology, collagen deposition staining)” value is listed as “consistent, nearly complete reversal of lung fibrosis”. Besides, the “procollagen I gene expression in lung (normalized to 18S)” value in experiment [2] is listed as “significant (p≦0.0001) inhibition”. For the same molecule, the “fibronectin gene expression in lung (normalized to 18S)” value in experiment [3] is “significant (p≦0.0001) inhibition”.
